Results on 3 molecules are retold here after ChEMBL document CHEMBL1152343, “2-Arylbenzofuran Derivatives from Morus cathayana” (J Nat Prod, 2009).

What all share (assay type): functional, cell-based
One assay deals with A549. The experiment in a line: Cytotoxicity against human A549 […] by MTT assay. A general note: Formazan colour is commonly taken as a measure of viable cells.
The next assay relates to BGC-823. The experiment in a line: Cytotoxicity against human BGC823 […] by MTT assay.
In another assay the test system is HCT-8. The experiment in a line: Cytotoxicity against human HCT8 […] by MTT assay.
The subject of another assay is A2780. The experiment in a line: Cytotoxicity against human A2780 […] by MTT assay.

Each structure is given as a SMILES string. ≈ marks a conversion by molar mass, not a printed value.

Consider `CC(C)=CCc1c(O)cc(O)cc1-c1cc2ccc(O)c(CC=C(C)C)c2o1` [CATHAFURAN B], for which the IC50 with A549, with BGC-823, in the assay on HCT-8 and with A2780 was 6.27 µg/mL (≈ 16.6 µM) in each case.

Turning to `CC(C)=CCc1c(O)cc2c(c1-c1cc3ccc(O)cc3o1)C=CC(C)(C)O2` [CATHAFURAN C], the IC50 (commonly the point on the concentration scale where inhibition reaches its midpoint) with HCT-8 came out at 7.33 µg/mL (≈ 19.5 µM); with A2780, 7.61 µg/mL (≈ 20.2 µM).

In the case of `O=c1[nH]cc(F)c(=O)[nH]1` [FLUOROURACIL], the IC50 with A549, with BGC-823, in the assay on HCT-8 and in the assay with A2780 was 0.2 µg/mL (≈ 1.54 µM) throughout.
